Test results from ChEMBL document CHEMBL6178002, “Identification of a RANKL/TNF-α Dual-Inhibitor as a Potential Disease-Modifying Agent for the Treatment of Knee Osteoarthritis” (J Med Chem, 2025).
The source made the active and inactive calls. The calls are words filed in the database; no cut-off is given here.

What was measured:
[1] = AUC (0 to t) in male Sprague-Dawley rat at 1 mg/kg, iv measured for 0.25 to 24 hrs; assay type: ADME, organism-based; conditions: in vivo, time 0.25-24 hrs
[2] = species: Rattus norvegicus; experiment: Anti-inflammatory activity in male Sprague-Dawley rat model of ACLT-induced osteoarthritis assessed as increase in BMD level at 50 to 100 ug, IART treated weekly once for 8 weeks by micro-CT analysis; assay type: functional, organism-based; conditions: dose 50-100 µg
[3] = test system: Bone marrow macrophage; experiment: Inhibition of RANKL/M-CSF-induced osteoclastogenesis in bone marrow macrophage cells (unknown origin) assessed as decrease in NFATC1 level incubated for 48 hrs by Western blot analysis; assay type: functional, cell-based; conditions: dose <= 2.5 µM
[4] = AUC (0 to t) in male Sprague-Dawley rat at 10 mg/kg, po measured for 0.25 to 24 hrs; assay type: ADME, organism-based; conditions: in vivo, time 0.25-24 hrs
[5] = test system: RAW264.7; experiment: Anti-inflammatory activity in LPS-stimulated mouse RAW264.7 cells assessed as decrease in IL-1beta level at 10 uM preincubated for 24 hrs followed by LPS addition measured after 2 hrs by RT-qPCR analysis; assay type: functional, cell-based; conditions: time 26.0 hrs
[6] = Inhibition of RANKL/M-CSF-induced osteoclastogenesis in male C57/BL6 mouse bone marrow cells at 1 uM incubated for 5 to 7 days by TRAP staining based analysis relative to control; assay type: functional; conditions: C57/BL6, Bone marrow cell, time 5-7 day
[7] = test system: Primary chondrocyte; experiment: Anti-inflammatory activity in IL-1beta-treated C57/BL6 mouse primary chondrocytes assessed as increase in collagen II mRNA level at 10 uM incubated for 24 hrs by RT-qPCR analysis; assay type: functional, cell-based
[8] = test system: RAW264.7; experiment: Anti-inflammatory activity in LPS-stimulated mouse RAW264.7 cells assessed as decrease in IL-6 level at 10 uM preincubated for 24 hrs followed by LPS addition measured after 2 hrs by RT-qPCR analysis; assay type: functional, cell-based; conditions: time 26.0 hrs
[9] = test system: Bone marrow macrophage; experiment: Inhibition of RANKL/M-CSF-induced osteoclastogenesis in bone marrow macrophage cells (unknown origin) assessed as decrease in c-Fos mRNA level incubated for 48 hrs by RT-qPCR analysis; assay type: functional, cell-based; conditions: dose <= 5.0 µM
[10] = Tmax in male Sprague-Dawley rat at 10 mg/kg, po measured for 0.25 to 24 hrs; assay type: ADME, organism-based; conditions: in vivo, time 0.25-24 hrs
[11] = test system: Bone marrow macrophage; experiment: Inhibition of RANKL/M-CSF-induced osteoclastogenesis in bone marrow macrophage cells (unknown origin) assessed as decrease in c-Fos level at 1 uM by Western blot analysis; assay type: functional, cell-based; conditions: time <= 5.0 day
[12] = species: Rattus norvegicus; experiment: Anti-inflammatory activity in male Sprague-Dawley rat model of ACLT-induced osteoarthritis assessed as increase in BV/TV level at 50 to 100 ug, IART treated weekly once for 8 weeks by micro-CT analysis; assay type: functional, organism-based; conditions: dose 50-100 µg
[13] = Cmax in male Sprague-Dawley rat at 10 mg/kg, po measured for 0.25 to 24 hrs; assay type: ADME, organism-based; conditions: in vivo, time 0.25-24 hrs
[14] = test system: Bone marrow macrophage; experiment: Inhibition of RANKL/M-CSF-induced osteoclastogenesis in bone marrow macrophage cells (unknown origin) assessed as decrease in TRAP mRNA level incubated for 48 hrs by RT-qPCR analysis; assay type: functional, cell-based; conditions: dose <= 5.0 µM
[15] = Half life in male Sprague-Dawley rat at 1 mg/kg, iv measured for 0.25 to 24 hrs; assay type: ADME, organism-based; conditions: in vivo, time 0.25-24 hrs
[16] = test system: Bone marrow macrophage; experiment: Inhibition of RANKL/M-CSF-induced osteoclastogenesis in bone marrow macrophage cells (unknown origin) assessed as decrease in cathepsin K level incubated for 48 hrs by Western blot analysis; assay type: functional, cell-based; conditions: dose <= 2.5 µM
[17] = Clearance in male Sprague-Dawley rat at 1 mg/kg, iv measured for 0.25 to 24 hrs; assay type: ADME, organism-based; conditions: in vivo, time 0.25-24 hrs
[18] = species: Rattus norvegicus; experiment: Anti-inflammatory activity in male Sprague-Dawley rat model of ACLT-induced osteoarthritis assessed as increase in Tb.N level at 50 to 100 ug, IART treated weekly once for 8 weeks by micro-CT analysis; assay type: functional, organism-based; conditions: dose 50-100 µg
[19] = test system: Primary chondrocyte; experiment: Anti-inflammatory activity in IL-1beta-treated C57/BL6 mouse primary chondrocytes assessed as decrease in MMP-13 mRNA level at 10 uM incubated for 24 hrs by RT-qPCR analysis; assay type: functional, cell-based
[20] = test system: Bone marrow macrophage; experiment: Inhibition of RANKL/M-CSF-induced osteoclastogenesis in bone marrow macrophage cells (unknown origin) assessed as decrease in cathepsin K mRNA level incubated for 48 hrs by RT-qPCR analysis; assay type: functional, cell-based; conditions: dose <= 5.0 µM
[21] = Half life in male Sprague-Dawley rat at 10 mg/kg, po measured for 0.25 to 24 hrs; assay type: ADME, organism-based; conditions: in vivo, time 0.25-24 hrs
[22] = species: Rattus norvegicus; experiment: Anti-inflammatory activity in male Sprague-Dawley rat model of ACLT-induced osteoarthritis assessed as reduction in articular cartilage erosion at 50 to 100 ug, IART treated weekly once for 8 weeks by H and E/S-O/FG staining based analysis; assay type: functional, organism-based; conditions: dose 50-100 µg
[23] = test system: Bone marrow macrophage; experiment: Inhibition of RANKL/M-CSF-induced osteoclastogenesis in bone marrow macrophage cells (unknown origin) assessed as decrease in c-Fos mRNA level at 1 uM by RT-qPCR analysis; assay type: functional, cell-based; conditions: time <= 5.0 day
[24] = molecular target: Tumor necrosis factor (Homo sapiens, UniProt P01375); experiment: Binding affinity to CM5 chip-immobilized human TNF-alpha assessed as dissociation constant by SPR analysis
Sequence of Tumor necrosis factor (P01375 whole entry): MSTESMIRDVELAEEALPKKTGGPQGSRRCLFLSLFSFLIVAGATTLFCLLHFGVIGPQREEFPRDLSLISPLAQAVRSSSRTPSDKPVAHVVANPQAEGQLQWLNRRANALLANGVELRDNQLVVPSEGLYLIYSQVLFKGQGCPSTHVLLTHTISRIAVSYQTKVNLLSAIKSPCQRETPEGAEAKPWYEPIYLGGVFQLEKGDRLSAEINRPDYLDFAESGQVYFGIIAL

SMILES: Cc1cccc(C)c1NC(=O)[C@@H]1Cc2c([nH]c3ccccc23)C2(CN(c3ccccc3)C2)N1
- AUC(0-t) [1]: 227 ng·h/mL
- Activity [2]: Active
- inhibition [3]: Dose-dependent-effect
- AUC(0-t) [4]: 1620 ng·h/mL
- Activity [5]: Active
- inhibition at 1 µM [6]: 98.6%
- Activity [7]: Active
- Activity [8]: Active
- inhibition [9]: Dose-dependent-effect
- Tmax [10]: 0.5 h
- inhibition [11]: Time-dependent-effect
- Activity [12]: Active
- Cmax [13]: 780 ng/mL
- inhibition [14]: Dose-dependent-effect
- half-life [15]: 1.27 h
- inhibition [16]: Dose-dependent-effect
- clearance [17]: 71.7 mL/min/kg
- Activity [18]: Active
- Activity [19]: Active
- inhibition [20]: Dose-dependent-effect
- half-life [21]: 5.07 h
- Activity [22]: Active
- inhibition [23]: Time-dependent-effect
- Kd [24]: 18.6 µM
